This note sets out measurements from ChEMBL document CHEMBL1909046, “DrugMatrix in vitro pharmacology data”.

Chain of Insulin receptor (P15127 27-759 limits assumed): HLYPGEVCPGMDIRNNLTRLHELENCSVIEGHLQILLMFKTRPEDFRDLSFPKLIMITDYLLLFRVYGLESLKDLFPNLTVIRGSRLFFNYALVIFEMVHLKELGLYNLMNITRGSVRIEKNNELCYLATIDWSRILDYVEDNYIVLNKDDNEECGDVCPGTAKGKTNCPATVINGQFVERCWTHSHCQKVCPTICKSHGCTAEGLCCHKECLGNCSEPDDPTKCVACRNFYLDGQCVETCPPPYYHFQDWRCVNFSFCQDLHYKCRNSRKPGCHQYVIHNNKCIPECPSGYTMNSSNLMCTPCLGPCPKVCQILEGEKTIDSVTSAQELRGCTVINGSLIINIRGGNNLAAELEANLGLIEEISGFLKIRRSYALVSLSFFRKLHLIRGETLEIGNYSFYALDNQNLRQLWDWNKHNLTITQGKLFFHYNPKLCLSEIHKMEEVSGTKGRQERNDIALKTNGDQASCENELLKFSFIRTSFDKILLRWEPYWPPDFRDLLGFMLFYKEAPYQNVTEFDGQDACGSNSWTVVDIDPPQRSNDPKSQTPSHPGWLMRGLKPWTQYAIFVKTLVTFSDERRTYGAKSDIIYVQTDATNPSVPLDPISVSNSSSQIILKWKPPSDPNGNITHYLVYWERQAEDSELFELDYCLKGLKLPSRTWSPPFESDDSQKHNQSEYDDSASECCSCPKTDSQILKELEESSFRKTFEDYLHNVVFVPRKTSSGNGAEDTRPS
Chain of Insulin receptor (P15127 764-1383 limits assumed): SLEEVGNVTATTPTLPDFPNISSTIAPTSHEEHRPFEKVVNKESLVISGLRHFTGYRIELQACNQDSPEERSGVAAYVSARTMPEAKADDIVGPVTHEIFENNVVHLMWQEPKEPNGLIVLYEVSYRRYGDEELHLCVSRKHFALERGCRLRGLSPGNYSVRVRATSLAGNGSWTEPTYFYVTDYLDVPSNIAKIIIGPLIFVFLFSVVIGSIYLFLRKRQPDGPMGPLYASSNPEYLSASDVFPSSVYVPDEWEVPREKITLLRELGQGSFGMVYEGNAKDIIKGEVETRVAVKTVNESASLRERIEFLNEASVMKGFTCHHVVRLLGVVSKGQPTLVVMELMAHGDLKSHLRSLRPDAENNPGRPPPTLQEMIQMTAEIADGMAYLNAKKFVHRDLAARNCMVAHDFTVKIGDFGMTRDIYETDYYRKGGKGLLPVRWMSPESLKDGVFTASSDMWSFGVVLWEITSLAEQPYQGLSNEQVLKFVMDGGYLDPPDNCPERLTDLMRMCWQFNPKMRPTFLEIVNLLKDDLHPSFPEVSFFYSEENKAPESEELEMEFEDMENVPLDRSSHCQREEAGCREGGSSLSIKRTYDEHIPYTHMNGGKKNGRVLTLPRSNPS

One assay concerns the target Insulin receptor (Rattus norvegicus, UniProt P15127). Note: in other assays of this panel Not Active means under 50% inhibition at 10 µM.
Assay: not given
In kind it is cell membranes, Wistar, Liver, Membrane.
Conditions: not given
As for GOLD SODIUM THIOMALATE, the IC50 entry is reported as “Not Active” and the Ki entry is “Not Active”.
`CC[N+](CC)(CC)CCOc1cccc(OCC[N+](CC)(CC)CC)c1OCC[N+](CC)(CC)CC.[I-].[I-].[I-]` [GALLAMINE TRIETHIODIDE]: the IC50 entry is reported as “Not Active”.
Take `OCc1ccccc1` [BENZYL ALCOHOL]: the IC50 entry is “Not Active”.

The next assay concerns the target T1, Neutrophil elastase (Homo sapiens, UniProt P08246).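 Note: inhibition of neutrophil elastase enzyme activity, measured with a p-nitroanilide-linked peptide substrate; in other assays of this panel Not Active means under 50% inhibition at 10 µM.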
T1 sequence (P08246 whole entry): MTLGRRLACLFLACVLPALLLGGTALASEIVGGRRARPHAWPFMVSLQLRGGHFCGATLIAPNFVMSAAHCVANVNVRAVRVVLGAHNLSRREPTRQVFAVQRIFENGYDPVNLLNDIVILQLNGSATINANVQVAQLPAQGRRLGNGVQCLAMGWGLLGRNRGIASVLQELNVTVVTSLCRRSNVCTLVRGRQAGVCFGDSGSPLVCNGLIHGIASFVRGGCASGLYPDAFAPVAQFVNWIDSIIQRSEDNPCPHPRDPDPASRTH
Assay: not given
In kind it is tissue-based.
Conditions: not given
As to GOLD SODIUM THIOMALATE, the IC50 entry is recorded as “Not Active” and the Ki result is “Not Active”.
On to `CC[N+](CC)(CC)CCOc1cccc(OCC[N+](CC)(CC)CC)c1OCC[N+](CC)(CC)CC.[I-].[I-].[I-]` [GALLAMINE TRIETHIODIDE], for which the IC50 entry is given as “Not Active”.
Still for that read-out and setting: then `OCc1ccccc1` [BENZYL ALCOHOL], with “Not Active”.

In a further assay the target is Estrogen receptor beta (Homo sapiens, UniProt Q92731). Note: in other assays of this panel Not Active means under 50% inhibition at 10 µM.
Chain of Estrogen receptor beta (Q92731 whole entry): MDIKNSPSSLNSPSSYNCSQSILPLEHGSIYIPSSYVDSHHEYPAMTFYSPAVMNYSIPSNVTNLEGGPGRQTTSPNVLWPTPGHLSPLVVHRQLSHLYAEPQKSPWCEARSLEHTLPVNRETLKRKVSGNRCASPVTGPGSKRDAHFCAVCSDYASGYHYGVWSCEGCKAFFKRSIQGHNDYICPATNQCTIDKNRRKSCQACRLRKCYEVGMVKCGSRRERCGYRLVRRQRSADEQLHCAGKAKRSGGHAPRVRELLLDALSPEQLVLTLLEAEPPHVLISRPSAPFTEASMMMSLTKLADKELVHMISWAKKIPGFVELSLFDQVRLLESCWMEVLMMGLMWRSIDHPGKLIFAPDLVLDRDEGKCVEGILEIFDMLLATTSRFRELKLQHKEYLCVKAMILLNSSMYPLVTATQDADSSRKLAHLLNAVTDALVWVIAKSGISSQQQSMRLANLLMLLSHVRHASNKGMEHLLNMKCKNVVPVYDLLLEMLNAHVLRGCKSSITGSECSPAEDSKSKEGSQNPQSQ
Assay: not given
Particulars: sf9.
Turning to GOLD SODIUM THIOMALATE, the IC50 entry is reported as “Not Active” and the Ki result is listed as “Not Active”.
Take `CC[N+](CC)(CC)CCOc1cccc(OCC[N+](CC)(CC)CC)c1OCC[N+](CC)(CC)CC.[I-].[I-].[I-]` [GALLAMINE TRIETHIODIDE]: the IC50 entry is “Not Active”.
As for `OCc1ccccc1` [BENZYL ALCOHOL], the IC50 result is reported as “Not Active”.

Test system in another assay: not listed separately
Kind of assay: DRUGMATRIX: Phorbol Ester radioligand binding (ligand: [3H] PDBu). Type of assay: cell membranes, Mus musculus, ICR, Brain, Membrane. Conditions: Not Active = under 50% inhibition at 10 µM.
Consider GOLD SODIUM THIOMALATE, for which the IC50 result is listed as “Not Active” and the Ki result was “Not Active”.
As to `CC[N+](CC)(CC)CCOc1cccc(OCC[N+](CC)(CC)CC)c1OCC[N+](CC)(CC)CC.[I-].[I-].[I-]` [GALLAMINE TRIETHIODIDE], the IC50 result was “Not Active” and the Ki entry is “Not Active”.
As to `OCc1ccccc1` [BENZYL ALCOHOL], the IC50 result is reported as “Not Active” and the Ki result was “Not Active”.

Test system in the next assay: not listed separately
Put plainly: DRUGMATRIX: ATPase, Na+/K+ enzyme inhibition (substrate: ATP). In kind it is tissue-based, Sus scrofa, Heart. Particulars: Not Active = under 50% inhibition at 10 µM.
Take GOLD SODIUM THIOMALATE: the IC50 result is given as “Not Active” and the Ki result is “Not Active”.
On to `CC[N+](CC)(CC)CCOc1cccc(OCC[N+](CC)(CC)CC)c1OCC[N+](CC)(CC)CC.[I-].[I-].[I-]` [GALLAMINE TRIETHIODIDE], for which the IC50 result is “Not Active” and the Ki result was “Not Active”.
In the case of `OCc1ccccc1` [BENZYL ALCOHOL], the IC50 result is “Not Active” and the Ki entry is on record as “Not Active”.

In another assay the target is T2, C-C chemokine receptor type 4 (Homo sapiens, UniProt P51679). Note: in other assays of this panel Not Active means under 50% inhibition at 10 µM.
T2 sequence (P51679 whole entry): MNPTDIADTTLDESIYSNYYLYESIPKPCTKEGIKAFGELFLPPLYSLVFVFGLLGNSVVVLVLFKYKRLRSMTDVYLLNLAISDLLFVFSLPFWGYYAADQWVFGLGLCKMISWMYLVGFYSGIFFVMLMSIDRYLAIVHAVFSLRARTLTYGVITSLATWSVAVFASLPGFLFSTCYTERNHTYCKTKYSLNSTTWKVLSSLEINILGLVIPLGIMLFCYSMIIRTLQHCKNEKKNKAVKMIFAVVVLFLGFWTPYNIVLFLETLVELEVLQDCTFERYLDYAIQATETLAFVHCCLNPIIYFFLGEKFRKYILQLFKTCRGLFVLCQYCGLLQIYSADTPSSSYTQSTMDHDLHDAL
Assay: not given
In kind it is cell membranes, Membrane. Conditions: chem-1.
For GOLD SODIUM THIOMALATE, the IC50 result is “Not Active” and the Ki result is recorded as “Not Active”.
Consider `CC[N+](CC)(CC)CCOc1cccc(OCC[N+](CC)(CC)CC)c1OCC[N+](CC)(CC)CC.[I-].[I-].[I-]` [GALLAMINE TRIETHIODIDE], for which the IC50 entry is recorded as “Not Active”.
On the same count and under the same terms, then `OCc1ccccc1` [BENZYL ALCOHOL], with “Not Active”.

The target of another assay is T3, Nitric oxide synthase, inducible (Mus musculus, UniProt P29477).
T3 sequence (P29477 whole entry): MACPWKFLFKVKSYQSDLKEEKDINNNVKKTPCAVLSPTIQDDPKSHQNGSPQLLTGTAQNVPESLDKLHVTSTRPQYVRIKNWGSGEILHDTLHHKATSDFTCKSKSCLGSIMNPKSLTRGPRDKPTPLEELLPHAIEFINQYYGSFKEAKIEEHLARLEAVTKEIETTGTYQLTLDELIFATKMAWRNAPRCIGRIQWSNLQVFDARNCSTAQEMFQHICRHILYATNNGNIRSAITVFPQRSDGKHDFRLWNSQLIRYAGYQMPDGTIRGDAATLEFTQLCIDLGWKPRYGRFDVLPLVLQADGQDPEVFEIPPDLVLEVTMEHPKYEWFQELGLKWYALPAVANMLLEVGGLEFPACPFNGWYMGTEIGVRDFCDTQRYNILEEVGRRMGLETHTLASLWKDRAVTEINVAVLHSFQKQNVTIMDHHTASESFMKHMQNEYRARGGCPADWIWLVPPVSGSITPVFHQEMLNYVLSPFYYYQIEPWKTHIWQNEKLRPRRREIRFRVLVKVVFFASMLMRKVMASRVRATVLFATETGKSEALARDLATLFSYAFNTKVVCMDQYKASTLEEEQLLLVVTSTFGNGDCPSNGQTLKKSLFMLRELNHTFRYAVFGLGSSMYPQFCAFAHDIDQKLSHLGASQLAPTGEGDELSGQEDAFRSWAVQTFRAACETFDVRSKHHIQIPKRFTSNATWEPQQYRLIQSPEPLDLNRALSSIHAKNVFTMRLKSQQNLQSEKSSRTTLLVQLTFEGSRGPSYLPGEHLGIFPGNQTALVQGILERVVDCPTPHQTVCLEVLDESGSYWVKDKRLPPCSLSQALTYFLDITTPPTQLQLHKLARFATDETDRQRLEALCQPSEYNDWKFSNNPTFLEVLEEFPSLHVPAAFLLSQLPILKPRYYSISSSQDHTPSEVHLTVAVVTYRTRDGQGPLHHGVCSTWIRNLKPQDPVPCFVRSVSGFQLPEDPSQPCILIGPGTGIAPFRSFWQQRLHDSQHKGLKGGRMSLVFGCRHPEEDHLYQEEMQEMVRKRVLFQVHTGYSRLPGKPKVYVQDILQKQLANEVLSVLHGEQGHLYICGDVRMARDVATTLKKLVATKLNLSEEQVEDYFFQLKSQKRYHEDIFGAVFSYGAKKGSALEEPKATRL
Assay: not given
Details: species or system Escherichia coli.
Conditions: not given
In the case of GOLD SODIUM THIOMALATE, the IC50 entry was “Not Active” and the Ki entry is listed as “Not Active”.
As to `CC[N+](CC)(CC)CCOc1cccc(OCC[N+](CC)(CC)CC)c1OCC[N+](CC)(CC)CC.[I-].[I-].[I-]` [GALLAMINE TRIETHIODIDE], the IC50 result is on record as “Not Active”.
Still for that read-out and setting: with `OCc1ccccc1` [BENZYL ALCOHOL] the entry was “Not Active”.

In another assay the target is T4, Neuropeptide Y receptor type 1 (Homo sapiens, UniProt P25929). Note: in other assays of this panel Not Active means under 50% inhibition at 10 µM.
T4 sequence (P25929 whole entry): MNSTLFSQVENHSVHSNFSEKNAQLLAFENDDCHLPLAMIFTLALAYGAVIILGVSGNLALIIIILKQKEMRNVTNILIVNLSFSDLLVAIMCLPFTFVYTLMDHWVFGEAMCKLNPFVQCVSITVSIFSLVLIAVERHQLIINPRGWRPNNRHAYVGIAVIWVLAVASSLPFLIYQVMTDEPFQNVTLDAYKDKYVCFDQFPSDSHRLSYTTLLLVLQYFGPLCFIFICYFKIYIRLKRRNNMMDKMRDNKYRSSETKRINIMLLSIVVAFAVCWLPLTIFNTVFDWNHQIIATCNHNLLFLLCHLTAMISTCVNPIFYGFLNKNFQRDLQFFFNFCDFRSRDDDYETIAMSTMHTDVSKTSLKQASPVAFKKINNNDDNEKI
Assay: not given
In kind it is cell membranes, Membrane. Conditions: sk-n-mc.
Turning to GOLD SODIUM THIOMALATE, the IC50 result was “Not Active” and the Ki entry is given as “Not Active”.
With `CC[N+](CC)(CC)CCOc1cccc(OCC[N+](CC)(CC)CC)c1OCC[N+](CC)(CC)CC.[I-].[I-].[I-]` [GALLAMINE TRIETHIODIDE], the IC50 entry is reported as “Not Active”.
Still for that read-out and setting: then `OCc1ccccc1` [BENZYL ALCOHOL], with “Not Active”.

Test system in the next assay: not listed separately
Kind of assay: DRUGMATRIX: Glutamate, AMPA radioligand binding (ligand: [3H] AMPA). In kind it is cell membranes, Rattus norvegicus, Wistar, Cerebral cortex, Membrane. Particulars: Not Active = under 50% inhibition at 10 µM.
For the molecule GOLD SODIUM THIOMALATE, the IC50 entry was “Not Active” and the Ki result is “Not Active”.
On to `CC[N+](CC)(CC)CCOc1cccc(OCC[N+](CC)(CC)CC)c1OCC[N+](CC)(CC)CC.[I-].[I-].[I-]` [GALLAMINE TRIETHIODIDE], for which the IC50 entry was “Not Active” and the Ki result is given as “Not Active”.
Take `OCc1ccccc1` [BENZYL ALCOHOL]: the IC50 entry was “Not Active” and the Ki result is listed as “Not Active”.

Test system in a further assay: not listed separately
Put plainly: DRUGMATRIX: Glutamate, Kainate radioligand binding (ligand: [3H] Kainic acid). In kind it is cell membranes, Rattus norvegicus, Wistar, Brain, Membrane. Particulars: Not Active = under 50% inhibition at 10 µM.
GOLD SODIUM THIOMALATE: the IC50 entry is on record as “Not Active” and the Ki result is “Not Active”.
As for `CC[N+](CC)(CC)CCOc1cccc(OCC[N+](CC)(CC)CC)c1OCC[N+](CC)(CC)CC.[I-].[I-].[I-]` [GALLAMINE TRIETHIODIDE], the IC50 entry is “Not Active” and the Ki entry was “Not Active”.
On to `OCc1ccccc1` [BENZYL ALCOHOL], for which the IC50 result is given as “Not Active” and the Ki result is on record as “Not Active”.

Another assay deals with C-C chemokine receptor type 2 (Homo sapiens, UniProt P41597).
Chain of C-C chemokine receptor type 2 (P41597 whole entry): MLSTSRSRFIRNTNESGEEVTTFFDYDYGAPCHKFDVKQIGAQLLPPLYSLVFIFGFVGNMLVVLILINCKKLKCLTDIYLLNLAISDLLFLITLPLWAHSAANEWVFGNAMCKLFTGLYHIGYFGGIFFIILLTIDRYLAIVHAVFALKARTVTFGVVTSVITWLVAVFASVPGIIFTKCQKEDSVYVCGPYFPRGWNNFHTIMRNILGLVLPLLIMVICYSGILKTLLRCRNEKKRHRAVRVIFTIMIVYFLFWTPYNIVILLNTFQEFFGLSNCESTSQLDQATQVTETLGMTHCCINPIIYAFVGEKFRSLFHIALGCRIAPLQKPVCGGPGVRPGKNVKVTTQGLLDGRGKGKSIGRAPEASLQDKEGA
Assay: not given
Particulars: cho-k1. In kind it is cell membranes, CHO-K1, Membrane.
As to GOLD SODIUM THIOMALATE, the IC50 result is given as “Not Active” and the Ki entry is reported as “Not Active”.
Turning to `CC[N+](CC)(CC)CCOc1cccc(OCC[N+](CC)(CC)CC)c1OCC[N+](CC)(CC)CC.[I-].[I-].[I-]` [GALLAMINE TRIETHIODIDE], the IC50 entry is recorded as “Not Active”.
Same read-out and setting: with `OCc1ccccc1` [BENZYL ALCOHOL] the entry was “Not Active”.

The next assay concerns the target cGMP-specific 3',5'-cyclic phosphodiesterase (Homo sapiens, UniProt O76074). Put plainly: DRUGMATRIX: Phosphodiesterase PDE5 enzyme inhibition (substrate: [3H]cGMP + cGMP). In kind it is tissue-based, Platelet. Particulars: platelet; Not Active = under 50% inhibition at 10 µM.
Take GOLD SODIUM THIOMALATE: the IC50 entry is listed as “Not Active” and the Ki entry is listed as “Not Active”.
As for `CC[N+](CC)(CC)CCOc1cccc(OCC[N+](CC)(CC)CC)c1OCC[N+](CC)(CC)CC.[I-].[I-].[I-]` [GALLAMINE TRIETHIODIDE], the IC50 entry is “Not Active”.
Still for that read-out and setting: then `OCc1ccccc1` [BENZYL ALCOHOL], with “Not Active”.

Another assay concerns the target T5, Leukotriene C4 synthase (Cavia porcellus, UniProt A6XA80).
T5 sequence (A6XA80 whole entry): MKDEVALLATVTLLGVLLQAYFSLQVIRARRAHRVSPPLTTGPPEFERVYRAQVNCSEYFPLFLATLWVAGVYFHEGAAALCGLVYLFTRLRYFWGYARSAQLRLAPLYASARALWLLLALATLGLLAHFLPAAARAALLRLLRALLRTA
Put plainly: biochemical. Type of assay: tissue-based, Lung.
Conditions: not given
Take GOLD SODIUM THIOMALATE: the IC50 entry was “Not Active” and the Ki result is given as “Not Active”.
With `CC[N+](CC)(CC)CCOc1cccc(OCC[N+](CC)(CC)CC)c1OCC[N+](CC)(CC)CC.[I-].[I-].[I-]` [GALLAMINE TRIETHIODIDE], the IC50 result is on record as “Not Active”.
Same read-out and setting: with `OCc1ccccc1` [BENZYL ALCOHOL] the entry was “Not Active”.
